Assay results from patent US20230263822A1, “MODULATION OF FACTOR 11 EXPRESSION” (Ionis Pharmaceuticals, Inc., priority 2008, published 2023).

Legend:
[1] = apixaban added to aspirin and to aspirin plus clopidogrel, compared with aspirin alone and aspirin plus clopidogrel (Wong); cited from earlier work
platelet factor-4 (PF-4) [2] = assay: Thrombus formation by PF-4 real-time PCR, FeCl3 induced venous thrombosis model vs Apixaban (Example 14); type: in vivo, BALB/c mice; settings: for PF-4 in vena cava, percentage as compared to PBS controls (thrombus formation): + FeCl3
Method: (§1) ISIS 404071 and Apixaban were evaluated in the FeCl3 induced VT mouse model. […] Two days after receiving the last dose of ISIS 404071, mice were anesthetized with 150 mg/kg ketamine mixed with 10 mg/kg xylazine administered by intraperitoneal injection. […] Twenty minutes after receiving Apixaban, mice were anesthetized with 150 mg/kg ketamine mixed with 10 mg/kg xylazine administered by intraperitoneal injection. […] Two days after the last dose of PBS, mice in both groups were anesthetized with 150 mg/kg ketamine mixed with 10 mg/kg xylazine administered by intraperitoneal injection. Thrombus formation was induced with FeCl3 in all of the mice except the first control group.
(§2) In mice undergoing FeCl3 treatment, thrombus formation was induced by applying a piece of filter paper (2×4 mm) pre-saturated with 10% FeCl3 solution directly on the vena cava. After 3 minutes of exposure, the filter paper was removed. Thirty minutes after the filter paper application, a fixed length of the vein containing the thrombus was dissected out for platelet analysis. Liver was collected for RNA analysis.
Real-time PCR quantification of platelet factor-4 (PF-4) was used to quantify platelets in the vena cava as a measure of thrombus formation. […] Results are presented as a percentage of PF-4 in ISIS 404071 or Apixaban treated mice, as compared to the two PBS-treated control groups.

Factor 11 mRNA = Factor 11 mRNA in liver, FeCl3 induced venous thrombosis model vs Apixaban (Example 14); type: in vivo, BALB/c mice; settings: for % inhibition of Factor 11 mRNA in liver relative to PBS control: FeCl3 VT model
Method: as §1, §2
RNA was extracted from liver tissue for real-time PCR analysis of Factor 11. Results are presented as percent inhibition of Factor 11, relative to PBS control.

[3] = design: species or system BALB/c mice; settings: mouse, in vivo
Method: ISIS 404071 and Apixaban were evaluated in the tail bleeding model.
The saline filled tubes were weighed before and after bleeding.

blood coagulation = assay: PT and aPTT, combination with Apixaban (Example 20); type: in vivo, BALB/c mice
Method: PT and aPTT were measured using PPP from mice treated with ISIS 404071 in combination with Apixaban. In the first cohort, ISIS 404071 was administered subcutaneously to BALB/c mice at a dosage of 25 mg/kg twice a week for 3 weeks. Plasma was collected from these mice 5 days after receiving the last dose of ISIS 404071. In the second cohort, Apixaban was administered subcutaneously to BALB/c mice at a dosage of 6 mg/kg twice daily for three days. Plasma was collected from these mice 20 minutes after receiving the last dose of Apixaban. In the third cohort, ISIS 404071 was administered subcutaneously to BALB/c mice at a dosage of 20 mg/kg twice a week for 3 weeks, and Apixaban was administered subcutaneously at a dosage of 6 mg/kg twice daily on the last three days of ISIS 404071 treatment. Plasma was collected from these mice 20 minutes after receiving the last dose of Apixaban. In a fourth cohort, PBS was administered subcutaneously twice a week for three weeks, as a control. Plasma was collected 5 days after the last dose of PBS.
PT and aPTT values provided in Table 32 are reported as International Normalized Ratio (INR) values. […] However, Apixaban and Apixaban combined with ISIS 404071 increased PT. Also shown in Table 32, Apixaban, ISIS 404071, and ISIS 404071 combined with Apixaban increase aPTT.

[4] = Tail bleeding assay, Apixaban in combination with PLAVIX (Example 28); type: in vivo, BALB/c mice
Method: Five groups of eight BALB/c mice were treated with 0 mg/kg, 6.25 mg/kg, 12.50 mg/kg, 25.00 mg/kg, or 50.00 mg/kg of PLAVIX. Mice were given two doses of PLAVIX on day one and one dose of PLAVIX on day two, two hours before bleeding. An additional five groups of eight BALB/c mice were treated with 0 mg/kg, 6.25 mg/kg, 12.50 mg/kg, 25.00 mg/kg, or 50.00 mg/kg of PLAVIX. Mice were given two doses of PLAVIX on day one and one dose of PLAVIX on day two, two hours before bleeding. […] Two hours after receiving their final treatment, mice were placed in a tail bleeding chamber.

[5] = Tail bleeding assay, combination with PLAVIX (Example 27); type: in vivo, BALB/c mice; settings: ISIS 404071 0
Method: ISIS 404071 was administered subcutaneously at a dosage of 20 mg/kg twice a week for 3 weeks to 5 groups of eight BALB/c mice. After the last dose of ISIS 404071, mice were treated with 0 mg/kg, 6.25 mg/kg, 12.50 mg/kg, 25.00 mg/kg, or 50.00 mg/kg of PLAVIX. Two doses of PLAVIX were administered to the mice on day one and one dose of PLAVIX was administered on day two, two hours before bleeding.
Two hours after receiving their final treatment, mice were placed in a tail bleeding chamber. […] The blood was collected for the course of 40 minutes.

platelet factor-4 (PF-4) [6] = assay: Thrombus formation by PF-4, FeCl3 induced VT model, combination with PLAVIX (Example 26); type: in vivo, BALB/c mice; settings: for PF-4 mRNA, percent as compared to the PBS + FeCl3 control (thrombus formation): ISIS 404071 0 mg/kg
Method: The combination of ISIS 404071 and PLAVIX was evaluated in the FeCl3 induced VT mouse model. Four groups of eight BALB/c mice, weighing approximately 25 g each, were treated with 6.25 mg/kg, 12.50 mg/kg, 25.00 mg/kg, or 50.00 mg/kg of PLAVIX. Mice were given two doses of PLAVIX on day one and one dose of PLAVIX on day two, two hours before surgery.
After the last dose of ISIS 404071, mice were treated with 6.25 mg/kg, 12.50 mg/kg, 25.00 mg/kg, or 50.00 mg/kg of PLAVIX. Two doses of PLAVIX were administered to the mice on day one and one dose of PLAVIX was administered on day two, two hours before surgery.
Two control groups of eight BALB/c mice, weighing approximately 25 g each, were not treated with ISIS 404071 or PLAVIX. […] Thrombus formation was induced with FeCl3 in all of the mice except the first […] control groups. All mice were anesthetized with 150 mg/kg of ketamine mixed with 10 mg/kg of xylazine administered by intraperitoneal injection.
After 3 minutes of exposure, the filter paper was removed. Thirty minutes after the filter paper application, a fixed length of the vein containing the thrombus was dissected out for platelet analysis.
Real-time PCR quantification of PF-4 was used to quantify platelets in the vena cava as a measure of thrombus formation. […] Therefore, the combination of anti-platelet therapy with Factor 11 ASO increases antithrombotic activity. Data is presented as percent of PF-4 mRNA as compared to the PBS+ FeCl3 control.

[7] = system: mesenteric vein thrombosis; assay: Mesenteric vein thrombosis, intravital microscopy (Example 22); type: in vivo; settings: C57BL/6 mice, 50 mg/kg s.c. twice a week for three weeks, 10% FeCl3 on mesenteric vein
Method: In a first cohort, ISIS 404071 was administered subcutaneously to C57BL/6 mice twice a week for three weeks at a dose of 50 mg/kg. In a second cohort, a control oligonucleotide, ISIS 405277 ([…]; antisense oligonucleotide for Factor 2), incorporated herein as SEQ ID NO: 12 was administered subcutaneously to C57Bl/6 mice twice a week for three weeks at a dose of 50 mg/kg.
Blood was collected from the retro-orbital venous plexus of naïve C57BL/6 mice by puncture and collected in polypropylene tubes containing 300 μl of heparin (30 U/ml). Platelet rich plasma (PRP) was obtained by centrifugation at 1000 rpm for 5 min. The PRP was transferred to fresh tubes containing 2 μl of Prostaglandin I2 (PGI2) (2 μg/ml) and incubated at 37° C. for 5 min. After centrifugation at 2600 rpm, pellets were resuspended in 1 ml modified Tyrode's-HEPES buffer (137 mM NaCl, 0.3 mM Na2HPO4, 2 mM KCl, 12 mM NaHCO3, 5 mM HEPES, 5 mM glucose, 0.35% BSA, pH 7.2) containing 2 μl of PGI2 and incubated at 37° C. for 5 min. The suspended pellet was centrifuged at 2600 rpm for 5 min. To remove PGI2, the washing step was repeated twice and platelets were fluorescently labeled with calcein AM 2.5 μg/mL (Molecular Probes, Eugene, Oreg.) for 10 min at room temperature.
Fluorescently-labeled platelets were injected intravenously in ISIS 404071 treated and control oligonucleotide treated C57BL/6 mice. […] The exposed mesentery was kept moist throughout the experiment by periodic superfusion with warmed (37° C.) PBS. The mesentery was transluminated with a 12V, 100 W, DC stabilized source. Veins were visualized using a Zeiss (Germany) Axiovert 135 inverted microscope (Objective 32X) connected to an SVHS video recorder (AG-6730; Panasonic, Tokyo, Japan) using a CCD video camera (Hamamatsu Photonic Systems, Hamamatsu City, Japan). Centerline erythrocyte velocity (Vrbc) was measured using an optical Doppler velocimeter (Microcirculation Research Institute, Texas A&M College of Medicine, College Station, Tex.). Venular shear rate (τ) was calculated based on Poiseuille's Law for a newtonian fluid, τ=8(Vmean/Dv), where Dv is the diameter of the venule and Vmean is estimated from the measured Vrbc using the empirical correlation Vmean=Vrbc/1.6.
Mesenteric vein thrombosis was performed two days after the last antisense oligonucleotide injection. Thrombosis was induced by applying Whatman paper soaked in a 10% FeCl3 solution for 5 minutes on the mesenteric vein. The vein was monitored for 40 minutes, or until occlusion. The elapsed time before the first thrombus 30-50 μm in diameter and the elapsed time before blood stopped flowing for 30 seconds were observed.

[8] = Apixaban 0.5 mg/kg subcutaneously one time
[9] = Apixaban 2 mg/kg subcutaneously one time
[10] = Apixaban 5 mg/kg subcutaneously one time
[11] = Apixaban 10 mg/kg subcutaneously one time
[12] = Apixaban 20 mg/kg subcutaneously one time
[13] = BALB/c mice, ISIS 404071 25 or 20 mg/kg, Apixaban 6 mg/kg twice daily
[14] = ISIS 404071 alone 25 mg/kg s.c. twice a week for 3 weeks, Apixaban alone 6 mg/kg s.c. twice daily for three days, combination 20 mg/kg + 6 mg/kg

COc1ccc(-n2nc(C(N)=O)c3c2C(=O)N(c2ccc(N4CCCCC4=O)cc2)CC3)cc1 [Apixaban, reference compound]
bleeding time [1]: significant increase in bleeding time
PF-4 in vena cava, percentage as compared to PBS controls (thrombus formation) (platelet factor-4 (PF-4) [2]; [8]): 67%
PF-4 in vena cava, percentage as compared to PBS controls (thrombus formation) (platelet factor-4 (PF-4) [2]; [9]): 46%
PF-4 in vena cava, percentage as compared to PBS controls (thrombus formation) (platelet factor-4 (PF-4) [2]; [10]): 15%
PF-4 in vena cava, percentage as compared to PBS controls (thrombus formation) (platelet factor-4 (PF-4) [2]; [11]): 5%
PF-4 in vena cava, percentage as compared to PBS controls (thrombus formation) (platelet factor-4 (PF-4) [2]; [12]): 26%
PF-4 in vena cava as measure of thrombus formation (platelet factor-4 (PF-4) [2]; FeCl3 induced VT model, vs PBS control): also resulted in reduction of PF-4
% inhibition of Factor 11 mRNA in liver relative to PBS control (Factor 11 mRNA; [8]): 5%
% inhibition of Factor 11 mRNA in liver relative to PBS control (Factor 11 mRNA; [9]): 8%
% inhibition of Factor 11 mRNA in liver relative to PBS control (Factor 11 mRNA; [10]): 12%
% inhibition of Factor 11 mRNA in liver relative to PBS control (Factor 11 mRNA; [11]): 2%
% inhibition of Factor 11 mRNA in liver relative to PBS control (Factor 11 mRNA; [12]): 0%
Factor 11 mRNA in liver vs PBS control (Factor 11 mRNA; FeCl3 induced VT model, ISIS 404071 1.25-40 mg/kg, Apixaban 0.5-5 mg/kg s.c. once): did not result in significant reduction of Factor 11
bleeding in tail bleeding assay [3]: did increase bleeding
PT (blood coagulation; [13]): increased PT
aPTT (blood coagulation; [13]): increase aPTT
PT INR (blood coagulation; [14]): 3.25 INR
aPTT INR (blood coagulation; [14]): 1.44 INR
bleeding risk in tail bleeding assay ([4]; Apixaban 0.5 mg/kg i.p. in combination with anti-platelet therapy (PLAVIX 0-50 mg/kg)): increases bleeding risk
Blood (tail bleeding, collected for 40 minutes) ([4]; Apixaban 0.5 mg/kg intraperitoneally 20 minutes before bleeding, PLAVIX 0): 0.004 g

COC(=O)[C@H](c1ccccc1Cl)N1CCc2sccc2C1 [PLAVIX, clopidogrel]
Blood (tail bleeding, collected for 40 minutes) ([5]; PLAVIX 6.25 mg/kg): 0.075 g
Blood (tail bleeding, collected for 40 minutes) ([5]; PLAVIX 12.50 mg/kg): 0.205 g
Blood (tail bleeding, collected for 40 minutes) ([5]; PLAVIX 50.00 mg/kg): 0.628 g
PF-4 in vena cava as measure of thrombus formation (platelet factor-4 (PF-4) [6]; FeCl3 induced VT model, PLAVIX 6.25-50 mg/kg, ISIS 404071 20 mg/kg): resulted in a reduction of PF-4
PF-4 mRNA, percent as compared to the PBS + FeCl3 control (thrombus formation) (platelet factor-4 (PF-4) [6]; PLAVIX 6.25 mg/kg): 59%
PF-4 mRNA, percent as compared to the PBS + FeCl3 control (thrombus formation) (platelet factor-4 (PF-4) [6]; PLAVIX 12.50 mg/kg): 37%
PF-4 mRNA, percent as compared to the PBS + FeCl3 control (thrombus formation) (platelet factor-4 (PF-4) [6]; PLAVIX 50.00 mg/kg): 30%
PF-4 mRNA, percent as compared to the PBS + FeCl3 control (thrombus formation) (platelet factor-4 (PF-4) [6]; PLAVIX […]): 30%

ISIS 405277: control oligonucleotide AAGGACCTACACTATGGAAT; antisense oligonucleotide for Factor 2 (listed as DNA, chemistry not given here) [reference compound]
time of occlusion (occlusive thrombi) [7]: 19.3 ± 0.8 min
time of thrombus formation (30 μm in diameter) [7]: 8.9 ± 0.6 min
